# Assay results as given in patent publication US11053204B2, “Pyrimidinyloxy benzene derivatives as herbicides” (FMC Corporation, priority 2015, dated 2021).
# Experiments:
# Type in all cases: in vivo
# kochia (Kochia scoparia) [1] = assay: Test A postemergence, visual injury rating
# How it was run: (§1)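 Scoring: eye-based comparison with untreated controls, 0 for no effect through 100 for complete control, at about day 10. Treatments: directed soil spray preemergence; foliar spray postemergence on 2–10 cm plants at the one- to two-leaf stage. Medium: loam soil with sand.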
# [2] = tested on: giant foxtail (Setaria faberii); assay: Test A postemergence, visual injury rating
# How it was run: as §1
# [3] = tested on: ragweed (common ragweed, Ambrosia elatior); assay: Test A postemergence, visual injury rating
# How it was run: as §1
# [4] = tested on: wheat (Triticum aestivum); assay: Test A postemergence, visual injury rating
# How it was run: as §1
# [5] = tested on: pigweed (Amaranthus retroflexus); assay: Test A postemergence, visual injury rating
# How it was run: as §1
# [6] = tested on: barnyardgrass (Echinochloa crus-galli); assay: Test A postemergence, visual injury rating; details: 0 is no effect, 100 is complete control; for Barnyardgrass plant response rating: 0 to 100 scale, approximately 10 days
# How it was run: as §1
# corn (Zea mays) = assay: Test A postemergence, visual injury rating
# How it was run: as §1
# [7] = tested on: galium (catchweed bedstraw, Galium aparine); assay: Test A postemergence, visual injury rating
# How it was run: as §1
# [8] = tested on: Italian ryegrass (Lolium multiflorum); assay: Test A postemergence, visual injury rating
# How it was run: as §1
# [9] = tested on: blackgrass (Alopecurus myosuroides); assay: Test A postemergence, visual injury rating
# How it was run: as §1
# kochia (Kochia scoparia) [10] = assay: Test A preemergence, visual injury rating
# How it was run: as §1
# [11] = tested on: giant foxtail (Setaria faberii); assay: Test A preemergence, visual injury rating
# How it was run: as §1
# [12] = tested on: ragweed (common ragweed, Ambrosia elatior); assay: Test A preemergence, visual injury rating
# How it was run: as §1
# [13] = tested on: pigweed (Amaranthus retroflexus); assay: Test A preemergence, visual injury rating
# How it was run: as §1
# [14] = tested on: barnyardgrass (Echinochloa crus-galli); assay: Test A preemergence, visual injury rating
# How it was run: as §1
# [15] = tested on: Italian ryegrass (Lolium multiflorum); assay: Test A preemergence, visual injury rating
# How it was run: as §1
# [16] = tested on: barnyardgrass (Echinochloa crus-galli); assay: Test B flooded paddy test, plant response rating; details: 250 g ai/ha; Flood; scale of 0 to 100 where 0 is no effect and 100 is complete control; 13 to 15 days
# How it was run: (§2)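 Flooded 3 cm over soil; compound into paddy water; depth kept constant. Greenhouse 13–15 d.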
# [17] = tested on: ducksalad (Heteranthera limosa); assay: Test B flooded paddy test, plant response rating; details: 250 g ai/ha; Flood; scale of 0 to 100 where 0 is no effect and 100 is complete control; 13 to 15 days
# How it was run: as §2
# rice (Oryza sativa) = assay: Test B flooded paddy test, plant response rating; details: 250 g ai/ha; Flood; scale of 0 to 100 where 0 is no effect and 100 is complete control; 13 to 15 days
# How it was run: as §2
# [18] = tested on: sedge, umbrella (small-flower umbrella sedge, Cyperus difformis); assay: Test B flooded paddy test, plant response rating; details: 250 g ai/ha; Flood; scale of 0 to 100 where 0 is no effect and 100 is complete control; 13 to 15 days
# How it was run: as §2
# [19] = 125 g ai/ha, 0 is no effect, 100 is complete control
# [20] = 500 g ai/ha, 0 is no effect, 100 is complete control
# [21] = 125 g ai/ha, 0 to 100 scale (0 no effect, 100 complete control)
# [22] = 500 g ai/ha, 0 to 100 scale (0 no effect, 100 complete control)
# [23] = 31 g ai/ha, 0 to 100 scale (0 no effect, 100 complete control)
# [24] = 125 g ai/ha, 0 to 100 scale, 0 is no effect, 100 is complete control, approximately 10 days
# [25] = 31 g ai/ha, 0 to 100 scale, 0 no effect, 100 complete control
smiles,measurement,setting,value
O=C(OCC1CCCC1)c1c(Br)cccc1Oc1ncc(Cl)cn1 [Compound 6],Kochia plant response rating (0 to 100 scale),kochia (Kochia scoparia) [1]; [19],40
same,Kochia plant response rating (0 to 100 scale),kochia (Kochia scoparia) [1]; [20],90
same,"Foxtail, Giant plant response rating (0 to 100 scale)",[2]; [19],10
same,"Foxtail, Giant plant response rating (0 to 100 scale)",[2]; [20],50
same,Ragweed plant response rating (0 to 100 scale),[3]; [19],10
same,Ragweed plant response rating (0 to 100 scale),[3]; [20],30
same,Wheat plant response rating (0 to 100 scale),[4]; [19],0
same,Wheat plant response rating (0 to 100 scale),[4]; [20],10
same,Pigweed plant response rating (0 to 100 scale),[5]; [19],60
same,Pigweed plant response rating (0 to 100 scale),[5]; [20],90
same,Barnyardgrass plant response rating (0 to 100 scale),[6]; 125 g ai/ha,10
same,Barnyardgrass plant response rating (0 to 100 scale),[6]; 500 g ai/ha,40
same,Corn plant response rating (0 to 100 scale),corn (Zea mays); [19],0
same,Corn plant response rating (0 to 100 scale),corn (Zea mays); [20],10
same,Galium plant response rating (0 to 100 scale),[7]; [19],60
same,Galium plant response rating (0 to 100 scale),[7]; [20],90
same,"Ryegrass, Italian plant response rating (0 to 100 scale)",[8]; [19],0
same,"Ryegrass, Italian plant response rating (0 to 100 scale)",[8]; [20],40
same,Blackgrass plant response rating (0 to 100 scale),[9]; [19],10
same,Blackgrass plant response rating (0 to 100 scale),[9]; [20],30
same,Kochia plant response rating,kochia (Kochia scoparia) [10]; [21],0
same,Kochia plant response rating,kochia (Kochia scoparia) [10]; [22],0
same,"Foxtail, Giant plant response rating",[11]; [21],60
same,"Foxtail, Giant plant response rating",[11]; [22],100
same,Ragweed plant response rating,[12]; [21],0
same,Ragweed plant response rating,[12]; [22],0
same,Pigweed plant response rating,[13]; [21],10
same,Pigweed plant response rating,[13]; [22],70
same,Barnyardgrass plant response rating,[14]; [21],10
same,Barnyardgrass plant response rating,[14]; [22],60
same,"Ryegrass, Italian plant response rating",[15]; [21],0
same,"Ryegrass, Italian plant response rating",[15]; [22],70
same,"Plant response rating, Barnyardgrass",[16],0
same,"Plant response rating, Ducksalad",[17],0
same,"Plant response rating, Rice",rice (Oryza sativa),0
same,"Plant response rating, Sedge, Umbrella",[18],0
N#Cc1cccc(Oc2ncc(Cl)cn2)c1COCC(F)(F)C(F)(F)F [Compound 132],Kochia plant response rating,kochia (Kochia scoparia) [1]; [23],40
same,Kochia plant response rating,kochia (Kochia scoparia) [1]; [24],70
same,"Foxtail, Giant plant response rating",[2]; [23],30
same,"Foxtail, Giant plant response rating",[2]; [24],50
same,Ragweed plant response rating,[3]; [23],0
same,Ragweed plant response rating,[3]; [24],0
same,Wheat plant response rating,[4]; [23],0
same,Wheat plant response rating,[4]; [24],20
same,Pigweed plant response rating,[5]; [23],60
same,Pigweed plant response rating,[5]; [24],90
same,Barnyardgrass plant response rating,[6]; 31 g ai/ha,30
same,Barnyardgrass plant response rating,[6]; 125 g ai/ha,50
same,Corn plant response rating,corn (Zea mays); [23],20
same,Corn plant response rating,corn (Zea mays); [24],30
same,Galium plant response rating,[7]; [23],20
same,Galium plant response rating,[7]; [24],60
same,"Ryegrass, Italian plant response rating",[8]; [23],0
same,"Ryegrass, Italian plant response rating",[8]; [24],0
same,Blackgrass plant response rating,[9]; [23],0
same,Blackgrass plant response rating,[9]; [24],30
same,"Plant response rating, Kochia",kochia (Kochia scoparia) [10]; [25],10
same,"Plant response rating, Kochia",kochia (Kochia scoparia) [10]; [21],60
same,"Plant response rating, Foxtail, Giant",[11]; [25],40
same,"Plant response rating, Foxtail, Giant",[11]; [21],100
same,"Plant response rating, Ragweed",[12]; [25],0
same,"Plant response rating, Ragweed",[12]; [21],0
same,"Plant response rating, Pigweed",[13]; [25],70
same,"Plant response rating, Pigweed",[13]; [21],100
same,"Plant response rating, Barnyardgrass",[14]; [25],30
same,"Plant response rating, Barnyardgrass",[14]; [21],100
same,"Plant response rating, Ryegrass, Italian",[15]; [25],0
same,"Plant response rating, Ryegrass, Italian",[15]; [21],30
same,"Plant response rating, Barnyardgrass",[16],45
same,"Plant response rating, Ducksalad",[17],90
same,"Plant response rating, Rice",rice (Oryza sativa),45
same,"Plant response rating, Sedge, Umbrella",[18],80
